Assay results published in patent US4853401A, “Spiro-hydantoins as aldose reductase inhibitors” (priority 1987, dated 1989).

How the values were obtained:
[1] = system: accumulation of sorbitol in the sciatic nerves; assay: Inhibition of accumulation of sorbitol in sciatic nerves of diabetic rats; format: in vivo, Sprague Dawley rats; conditions: oral 25 mg/kg at 0, 7 and 24 h, sacrificed 27 h
Procedure: 2.1 Inhibition of accumulation of sorbitol in crystalline lenses and nerves of diabetic rats:
The effects of the products according to the invention on the proportion of plasma glucose and the accumulation of sorbitol in the crystalline lenses and sciatic nerves of rats made diabetic by streptozotocin were examined by the method of M. J. Peterson, et al (Metabolism, 28, 456-461 (1979)).
Fasted Sprague Dawley rats were made diabetic by intraperitoneal injection of streptozotocin (75 mg/kg). The product under test was orally administered at a dose of 25 mg/kg after 0, 7 and 24 hours. The rats were sacrificed 27 hours after induction of diabetes. The crystalline lenses and sciatic nerves were taken and preserved at -20° C. until analysed. The crystalline lenses and sciatic nerves were homogenized in water and the proteins were precipitated from ethanol. The precipitate was eliminated by centrifuging and the supernatant liquid was lyophylised. The sorbitol in the sample was determined by the method of B. Bjorkqvist (J. of Chromatograph, 218, 65-71 (1981)), adapted by A. Lenaers et al. (Arch. Intern. Physiol. Bioch., 91, B, 62-63 (1983)).
The sample was dissolved in pyridine containing galactitol as an internal standard. Derivatives were formed therefrom by phenylisocyanate during incubation for 1 hour at 60° C. The reaction was then stopped by adding methanol and the derivatives were separated and determined by HPLC.
The results are expressed as percentage inhibition of the accumulation of sorbitol, compared with the controls.

[2] = system: accumulation of sorbitol in the crystalline lenses; assay: Preventive effect of single dose: sorbitol in crystalline lenses; format: in vivo, Sprague Dawley rats; conditions: for Accumulation of sorbitol in crystalline lenses, treated: 10 mg/kg oral
Procedure: (§1) 2.3. In vivo effects of a single dose of compound No. 2 (CP 3192 AR) on the variation in the proportion of plasma glucose and the accumulation of sorbitol in the crystalline lenses and sciatic nerves of diabetic rats.
(§2) 2.3.1. Preventive effect. CP 3192 AR was administered simultaneously with the induction of diabetes. The experiment was performed on 33 male Sprague Dawley rats weighing about 200 g.
(§3) At time 0 hours, 3 rats were sacrificed and used as non-diabetic controls. 30 fats fasted the previous day were made diabetic by an intraperitoneal injection of streptozotocin (75 mg/kg). A dose of 10 mg/kg of CP 3192 AR was simultaneously administered orally to 15 of the rats. The other 15 were given a placebo. 3 control rats and 3 rats treated with CP 3192 AR were sacrificed 2, 4, 8, 24 and 48 hours after induction of diabetes.
(§4) An estimate was made of the effects of the product on the proportion of plasma glucose and the sorbitol content of the crystalline lenses and sciatic nerves.

[3] = system: accumulation of sorbitol in the sciatic nerves; assay: Preventive effect of single dose: sorbitol in sciatic nerves; format: in vivo, Sprague Dawley rats; conditions: 10 mg/kg oral
Procedure: as §1, §2, §3, §4

[4] = Preventive effect of single dose: plasma glucose; format: in vivo, Sprague Dawley rats; conditions: for Plasma glucose, treated: 10 mg/kg oral
Procedure: as §1, §2, §3, §4

[5] = Curative effect of single dose: plasma glucose; format: in vivo, Sprague Dawley rats; conditions: for Plasma glucose, treated: 10 mg/kg oral 24 h after diabetes induction
Procedure: 2.3.2. Curative effect: CP 3192 AR was administered 24 hours after induction of diabetes.
As before, the experiment was made on 33 male Sprague Dawley rats weighing about 200 g. The 33 rats, which had been fasted the previous day, were made diabetic by an intraperitoneal injection of streptozotocin (75 mg/kg).
24 hours after induction of diabetes, 3 rats were sacrificed and used as diabetic controls. A dose of 10 mg/kg of CP 3192 AR was orally administered to 15 rats whereas the other 15 were given the excipient without an active product. 3 control rats and 3 rats treated with CP 3192 AR were sacrificed 2, 4, 8, 24 and 48 hours after administration of the product.
Estimates were made of the effects of the product on the proportion of plasma glucose and the sorbitol content of the crystalline lenses and sciatic nerves of rats made diabetic by streptozotocin.

[6] = single dose 10 mg/kg, lenses and sciatic nerves

With `CC(=O)OCN1C(=O)N(COC(C)=O)C2(C1=O)c1ccccc1-c1ccccc12` [Compound 2, bis-(1',3'-acetoxymethyl)-spiro-/fluorene-9,4'-imidazolidine/-2',5'-dione] the “Inhibition of accumulation of sorbitol in vivo, in sciatic nerves” value [1] was 85%, the mutagenic effect (Ames test) was “does not have a mutagenic effect” and the “Accumulation of sorbitol in crystalline lenses, treated” value ([2]; 2 h) was 3 ± 0 µg. The “Accumulation of sorbitol in crystalline lenses, treated” value ([2]; 4 h, p < 0.005) was 6.3 ± 0.6 µg, the “Accumulation of sorbitol in crystalline lenses, treated” value ([2]; 8 h, p < 0.05) was 12.3 ± 4.0 µg and the “Accumulation of sorbitol in crystalline lenses, treated” value ([2]; 24 h, p < 0.05) was 52 ± 10.1 µg. For the same molecule, the “Accumulation of sorbitol in crystalline lenses, treated” value ([2]; 48 h) was 92.7 ± 18.6 µg, the “duration of effect on sorbitol accumulation” value [2, 6] was “at least 48 hours” and the “onset of effect on sorbitol accumulation” value [2, 6] was “observed as soon as soribol began to accumulate”. For the same molecule, the “Accumulation of sorbitol in sciatic nerves, treated” value ([3]; 2 h, p < 0.05) was 1.23 ± 0.2 µg, the “Accumulation of sorbitol in sciatic nerves, treated” value ([3]; 4 h, p < 0.005) was 1.8 ± 0.2 µg and the “Accumulation of sorbitol in sciatic nerves, treated” value ([3]; 8 h, p < 0.0005) was 1.8 ± 0.5 µg. The “Accumulation of sorbitol in sciatic nerves, treated” value ([3]; 24 h, p < 0.05) was 4.0 ± 1.0 µg, the “Accumulation of sorbitol in sciatic nerves, treated” value ([3]; 48 h, p < 0.05) was 4.6 ± 1.7 µg and the “Plasma glucose, treated” value ([4]; 2 h) was 436 ± 45 mg/100 ml. The “Plasma glucose, treated” value ([4]; 4 h) was 359 ± 45 mg/100 ml, the “Plasma glucose, treated” value ([4]; 8 h) was 264 ± 73 mg/100 ml and the “Plasma glucose, treated” value ([4]; 24 h) was 485 ± 35 mg/100 ml. The “Plasma glucose, treated” value ([4]; 48 h) was 447 ± 34 mg/100 ml, the “effect on the proportion of plasma glucose” value ([4]; single oral dose 10 mg/kg) was “no effect” and the “Plasma glucose, treated” value ([5]; 2 h) was 406 ± 28 mg/100 ml. For the same molecule, the “Plasma glucose, treated” value ([5]; 4 h) was 459 ± 73 mg/100 ml, the “Plasma glucose, treated” value ([5]; 8 h) was 575 ± 14 mg/100 ml and the “Plasma glucose, treated” value ([5]; 24 h) was 478 ± 83 mg/100 ml. For the same molecule, the “Plasma glucose, treated” value ([5]; 48 h) was 456 ± 117 mg/100 ml and the “effect on the proportion of plasma glucose” value ([5]; single dose 10 mg/kg) was “no effect”.
